Results: patent publication US6613322B2, “Method for treating a subject suffering from conditions associated with an extracellular zinc sphingomyelinase” (The Trustees of Columbia University in the City of New York, priority 1997, dated 2003)

Key:
[1] = test system: lysosomal hydrolases; experiment: 125I-EGF degradation by aortic strips; parameters: species or system rabbit; details: 200 μM chloroquine, 3.5 h
Experimental: Iodination of EGF and assay for ^125I-EGF degradation. Epidermal growth factor (50 μg) was radioiodinated to a specific activity of 5400 counts/min/ng (IODOBEADS®, Pierce Chemical Co., Rockford, Ill.) and was used within 48 h of labeling.
For this study, ^125I-labeled epidermal growth factor (^125I-EGF) was used, which is known to be internalized by receptor-mediated endocytosis and degraded in lysosomes in many cell types (Goldstein et al., 1985).

[2] = target: T1, lysosomal SMase (Homo sapiens, UniProt P17405); experiment: Cellular hydrolysis of [3H]SM-LDL by cultured human fibroblasts; type: cell-based; details: read-out: inhibition of cellular hydrolysis of [3H]SM-LDL
T1 construct: endogenous in cells; host or cells: cultured human fibroblasts
T1 sequence (P17405 47-631): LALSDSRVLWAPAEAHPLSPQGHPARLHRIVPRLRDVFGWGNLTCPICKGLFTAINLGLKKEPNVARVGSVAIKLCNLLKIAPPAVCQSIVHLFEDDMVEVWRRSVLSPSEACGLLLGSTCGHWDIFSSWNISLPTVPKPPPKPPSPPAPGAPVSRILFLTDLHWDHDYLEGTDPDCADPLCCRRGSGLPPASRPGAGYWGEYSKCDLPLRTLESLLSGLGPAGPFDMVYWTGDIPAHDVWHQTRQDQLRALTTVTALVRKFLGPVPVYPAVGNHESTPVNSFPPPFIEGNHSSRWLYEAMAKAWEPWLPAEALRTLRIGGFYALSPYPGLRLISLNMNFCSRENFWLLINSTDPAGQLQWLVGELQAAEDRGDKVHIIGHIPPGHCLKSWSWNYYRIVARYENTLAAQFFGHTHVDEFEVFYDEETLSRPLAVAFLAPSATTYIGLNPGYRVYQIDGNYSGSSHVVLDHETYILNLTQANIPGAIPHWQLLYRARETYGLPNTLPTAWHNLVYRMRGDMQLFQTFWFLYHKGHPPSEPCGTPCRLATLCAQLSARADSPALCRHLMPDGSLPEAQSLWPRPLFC
Experimental: Second, the ability of chloroquine to work in the aortic strip assay was tested.

[3] = test system: arterial-wall SMase; details: for hydrolysis of LDL-sphingomyelin by rabbit aorta ex vivo (summary statement): Example 4 restatement
Experimental: Hydrolysis of [^3H]SM-LDL by strips of rabbit aorta. Aortae were isolated from rabbits fed a high-cholesterol diet for 18 d and incubated ex vivo for 3.5 h at 37° C. with 2 mg [^3H]palmitate-SM-labeled LDL per ml DMEM/0.2% BSA (usually ^18 12 mg total). Material extracted from these strips (Retained) was assayed for [^3H]SM and [^3H]ceramide; approximately 0.1% of the [^3H]SM-LDL (10-20 μg LDL protein) was retained during the 3.5-h incubation period. These [^3H]lipids were also assayed in ^3[H]SM-LDL not exposed to aorta but incubated in extraction buffer (No Aorta) as well as in [^3H]SM-LDL that was not retained by the aortic strips (i.e., still present in the medium after the 3.5-h incubation) and also incubated in extraction buffer (Unretained). For experiments #1 and #2 (FIG. 6A), portions of the aortic strips were preincubated with DMEM/0.2% BSA containing 15 mM EDTA for 30 min, and the 3.5-h incubation was also carried out in the presence of 15 mM EDNA.
Assay for LDL-SM hydrolysis by strips of rabbit aorta ex vivo. New Zealand white male rabbits (2-3 kg) were fed a chow diet containing 0.2% cholesterol and 10% soybean oil (w/w) for 18 days. The animals were sacrificed, and the thoracic aortae were removed rapidly and placed in a dissection dish with physiological Hank's Trizma maleate buffer (133 mM NaCl, 3.6 mM KCl, 1.0 mM CaCl2, 5.0 mM Trizma maleate, 16 mM dextrose, pH 7.3). The aortae were then further dissected to remove excess fat and any clotted blood and then cut longitudinally and pinned, lumen side up, in a tissue culture dish. The aortic strips were washed several times with DMEM/0.2% BSA and incubated at 37° C. for 3.5 h in DMEM/0.2% BSA containing 2 mg [^3H]SM-labeled LDL per ml. […] When present, these reagents were also added to the corresponding incubation media containing labeled LDL (see legend to FIG. 5). After the 3.5-h incubation of labeled LDL with aortic strips, media were removed (see below), the aortic strips were quickly washed twice in ice-cold PBS, and the center of the strip was cut away from the original cut ends. These center pieces were then minced and extracted in PBS, pH 7.4, containing 6 M guanidine-HCl, 5 mM EDTA, 0.02% sodium azide, 35 μM leupeptin, 1.5 mg aprotinin/ml, and 5 μM pepstatin A for 36 h at 4° C. The extract was centrifuged at 35,000×g for 30 min, and lipids were extracted from the supernate by the method of Bligh and Dyer (Bligh et al., 1959). [^3H]palmitate-SM, ^3 [H]palmitate-ceramide, and free [^3H]palmitate in the lipid extracts were separated by TLC using chloroform:methanol (95:5, v/v) or n-propanol:12.5% ammonium hydroxide (80:20, v/v). […]

[4] = target: T2, L-SMase (Mus musculus, UniProt Q04519); experiment: SMase assay of cell homogenate from J774 macrophages (SM micelles, pH 5.0); type: biochemical; details: 5 mM EDTA in assay
T2 construct: endogenous in cells; host or cells: J774.A1 macrophages, sonicated cell homogenate
T2 sequence (Q04519 45-627): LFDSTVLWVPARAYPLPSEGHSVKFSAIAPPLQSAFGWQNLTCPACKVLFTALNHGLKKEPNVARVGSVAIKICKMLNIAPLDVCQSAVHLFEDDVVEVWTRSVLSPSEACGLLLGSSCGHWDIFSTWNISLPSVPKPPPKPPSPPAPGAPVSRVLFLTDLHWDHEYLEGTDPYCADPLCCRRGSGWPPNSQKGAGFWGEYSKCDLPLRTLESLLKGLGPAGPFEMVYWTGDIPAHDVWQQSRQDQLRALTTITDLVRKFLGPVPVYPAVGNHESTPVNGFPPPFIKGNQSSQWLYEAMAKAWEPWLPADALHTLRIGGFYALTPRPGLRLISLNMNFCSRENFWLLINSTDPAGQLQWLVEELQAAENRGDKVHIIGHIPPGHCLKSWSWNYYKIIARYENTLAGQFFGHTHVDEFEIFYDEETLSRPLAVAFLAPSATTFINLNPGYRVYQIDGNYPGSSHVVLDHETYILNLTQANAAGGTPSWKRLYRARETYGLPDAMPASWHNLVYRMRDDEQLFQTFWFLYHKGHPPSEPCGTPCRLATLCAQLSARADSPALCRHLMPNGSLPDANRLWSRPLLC
Experimental: FIGS. 14A-B. Sequential chelation and addition of Zn^2+ to secreted and intracellular SMase. Serum-free conditioned medium and a cell homogenate from J774 macrophages were prepared as described in “Experimental Procedures”. FIG. 14A, conditioned medium (CM) was assayed for SMase activity using 250 nM [^3H]sphingomyelin in Triton X-100 micelles in the presence of either 5 mM EDTA (first bar) or 0.1 mM ZnCl2 (second bar) for 1 h at 37° C. at pH 5.0. An aliquot of the Zn-activated conditioned medium was then incubated for 18 h in the presence of 10 mM EDTA, 10 mM 1,10-phenanthroline, and 0.6% Triton X-100 at 4° C. (EDTA PHNANTH) and then assayed for SMase activity (third bar). […]
(§1) SMase Assay—As previously described (Schissel et al., 1996), the standard 200-μl assay mixture consisted of up to 40 μl of sample (conditioned media or homogenized cells; see above) and a volume of assay buffer (0.1 M sodium acetate, pH 5.0) to bring the volume to 160 μl. […] The ceramide spots were scraped and directly counted to quantify [^3H]ceramide. Typically, the assay reactions contained approximately 20 μg of cellular homogenate protein and a volume of conditioned media derived from a quantity of cells equivalent to approximately 50 μg of cellular protein.

[5] = target: B. cereus SMase (Bacillus cereus, UniProt P11889); details: 25 mM EDTA present from the start; 50 mU B. cereus SMase/ml, LDL 2 mg/ml, 37° C.
B. cereus SMase, sequence (P11889 28-333): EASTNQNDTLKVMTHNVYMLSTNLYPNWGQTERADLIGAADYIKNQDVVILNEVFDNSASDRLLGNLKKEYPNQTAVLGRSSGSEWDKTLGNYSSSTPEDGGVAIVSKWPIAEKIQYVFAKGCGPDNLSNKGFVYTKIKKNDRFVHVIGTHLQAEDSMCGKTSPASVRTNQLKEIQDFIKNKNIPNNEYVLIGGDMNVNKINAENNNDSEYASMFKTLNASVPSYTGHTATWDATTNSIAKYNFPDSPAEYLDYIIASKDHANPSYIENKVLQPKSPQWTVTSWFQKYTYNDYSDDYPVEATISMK
Experimental: Kinetics of SM hydrolysis and LDL aggregation induced by SMase and the effects of enzymatic inhibition. FIG. 1A: LDL (2 mg/ml) was incubated with 50 mU B. cereus SMase/ml at 37° C. in PES containing 5 nM MgCl2. At the indicated time points, aliquots of the LDL were harvested then assayed for extent of SM hydrolysis (closed triangles) and for aggregation (open squares) FIG. 1B. LDL was incubated in PBS containing 5 mM MgCl2 in the absence of SMase (filled circles), or in the presence of SMase without EDTA (open squares), with 25 mM EDTA present from the start of the incubation (open triangles), or with 25 mM EDTA added after 20 min of incubation (closed triangles) Samples were assayed for turbidity at the indicated timepoints. FIG. 1C, Aliquots from the 180-min timepoint in FIG. 1B were assayed for SM content.
Careful analysis of the time course of B. cereus SMase-induced LDL aggregation and LDL-SM hydrolysis was done. […] These kinetics are consistent with two possible mechanisms: a slow structural action of SMase, or a rapid enzymatic action that alters the particles so that they then slowly aggregate. To distinguish between these possibilities, EDTA was used to inhibit the enzymatic activity of the bacterial B. cereus SMase, which is a Mg^2+-dependent enzyme (Ikezawa et al., 1986).

[6] = target: T3, S-SMase (Mus musculus, UniProt Q04519); experiment: SMase assay of conditioned medium from J774 macrophages (SM micelles, pH 5.0); type: biochemical; details: treatment with EDTA alone
T3 construct: endogenous in cells; host or cells: J774.A1 macrophages, serum-free conditioned medium
T3 sequence (Q04519 45-627): T2 sequence (Q04519 45-627)
Experimental: FIGS. 14A-B. Sequential chelation and addition of Zn^2+ to secreted and intracellular SMase. Serum-free conditioned medium and a cell homogenate from J774 macrophages were prepared as described in “Experimental Procedures”. FIG. 14A, conditioned medium (CM) was assayed for SMase activity using 250 nM [^3H]sphingomyelin in Triton X-100 micelles in the presence of either 5 mM EDTA (first bar) or 0.1 mM ZnCl2 (second bar) for 1 h at 37° C. at pH 5.0. An aliquot of the Zn-activated conditioned medium was then incubated for 18 h in the presence of 10 mM EDTA, 10 mM 1,10-phenanthroline, and 0.6% Triton X-100 at 4° C. (EDTA PHNANTH) and then assayed for SMase activity (third bar). After chelation, a portion of this partially inactivated conditioned medium was then dialyzed against zinc-containing buffer C (150 mM NaCl, 10 mM Tris-HCl, 1 mM ZnCl2, 0.6% Triton X-100, pH 7.4) for 18 h and then assayed for SMase activity (fourth bar). FIG. 14B, an aliquot of cell homogenate (Cell Homgn) was assayed for SMase activity in the presence of assay buffer alone (first bar), 5 mM EDTA (second bar), or 0.1 mM ZnCl2 (third bar). Another aliquot of cell homogenate was incubated for 8 h in the presence of 10 mM EDTA, 10 mm 1,10-phenanthroline, and 0.6% Triton X-100 (EDTA PHNANTH) at 4° C. and then assayed for SMase activity (fourth bar). An aliquot of this chelator-treated cell homogenate was then dialyzed against zinc-containing buffer C for 18 h and then assayed for SMase activity (fifth bar).
as §1

[7] = test system: LDL; details: 10-fold molar excess of choline-phosphate, no SMase
Experimental: Next it was determined which of the three consequences of SMase enzymatic activity, namely, generation of choline-phosphate, generation of ceramide, and depletion of SM, is responsible for LDL aggregation. […] Incubating LDL with a 10-fold molar excess of choline-phosphate was performed.

[8] = test system: EC matrix; experiment: 125I-S-SMase binding to matrix derived from cultured cells; details: in presence of lipoprotein lipase
Text: In vitro, Smase causes lipoprotein aggregation, which is a key feature of atheromata and an inducer of foam cells. […] We have identified S-Mase (JBC 271:18431) as a candidate for this arterial Smase, owing to its secretion by endothelial cells (ECs) and macrophages and for its ability to hydrolzye atherogenic lipoproteins (JBC 273:2738 & 4081). We addressed two questions critical to the role of S-SMase in atherogenesis: is S-SMase present in lesions and does S-SMase bind matrix after secretion? Using two different anti-SMase antibodies, Smase staining was prominent in the endothelium of normal rabbit and mouse aorta. In atherosclerotic aorta from cholesterol-fed rabbits and apoE knockout mice and in human coronary lesions, there was very heavy Smase staining throughout the entire intima (endothelium and foam cells). In both normal and lesional aorta, there was staining of the mdia but far less than in the intima. […] To explore this point in vitro, ^125I-S-SMase was incubated with matrix derived from cultured smooth muscle or Ecs. With both, the moles of bound ^125I-S-SMase were≧bound ^125I-LDL, which is known to associate with matrix in vitro and in vivo. […] In summary, Smase, an enzyme implicated in atherogenesis, is present in normal endothelium and especially lesional intima, and there is evidence that S-Mase binds matrix both in vivo and in vitro.

For `CCN(CC)CCCC(C)Nc1ccnc2cc(Cl)ccc12` (stereo not drawn) [chloroquine], the “block of degradation of 125I-EGF” value [1] was 50%, the inhibition at 50 µM [2] was 73% and the “inhibition of [3H]ceramide enrichment of retained material” value ([3]; 200 μM chloroquine, 30 min preincubation and 3.5-h incubation) was “no substantial inhibition”. The “hydrolysis of LDL-sphingomyelin by rabbit aorta ex vivo (summary statement)” value [3] was “not inhibited”.

With `O=C(O)CN(CCN(CC(=O)O)CC(=O)O)CC(=O)O` [EDTA] the “inhibition of L-SMase in cell homogenates” value [4] was “not inhibited”, the “decrease in generation of ceramide in extracted (retained) material” value ([3]; 15 mM EDTA, 30 min preincubation and 3.5-h incubation with [3H]SM-LDL) was “approximately 50%” and the “hydrolysis of LDL-sphingomyelin by rabbit aorta ex vivo (summary statement)” value [3] was “inhibited”. The “inhibition of LDL aggregation (turbidity)” value [5] was “complete inhibition”, the “inhibition of LDL-SM hydrolysis” value [5] was “complete inhibition” and the “effect on S-SMase enzyme activity” value [6] was “did not affect enzyme activity”.

For `C[N+](C)(C)CCOP(=O)(O)O` [choline-phosphate], the “turbidity of LDL” value [7] was “failed to increase the turbidity of LDL”.

B1: lipoprotein lipase: arterial-wall enzyme (protein, UniProt P06858 28-475, looked up)
Lipoprotein lipase: ADQRRDFIDIESKFALRTPEDTAEDTCHLIPGVAESVATCHFNHSSKTFMVIHGWTVTGMYESWVPKLVAALYKREPDSNVIVVDWLSRAQEHYPVSAGYTKLVGQDVARFINWMEEEFNYPLDNVHLLGYSLGAHAAGIAGSLTNKKVNRITGLDPAGPNFEYAEAPSRLSPDDADFVDVLHTFTRGSPGRSIGIQKPVGHVDIYPNGGTFQPGCNIGEAIRVIAERGLGDVDQLVKCSHERSIHLFIDSLLNEENPSKAYRCSSKEAFEKGLCLSCRKNRCNNLGYEINKVRAKRSSKMYLKTRSQMPYKVFHYQVKIHFSGTESETHTNQAFEISLYGTVAESENIPFTLPEVSTNKTYSFLIYTEVDIGELLMLKLKWKSDSYFSWSDWWSSPGFAIQKIRVKAGETQKKVIFCSREKVSHLQKGKAPAVFVKCHDKSLNKKSG
In the case of B1, the “S-SMase binding to matrix” value [8] is reported as “enhanced”.
